Data as given in US9694040B2, “Hydrogenation of cannabis oil” (priority 2015, dated 2017).

Test system: U87 (Human glioblastoma)
Experiment: U87 glioblastoma subcutaneous xenograft tumor growth, excised tumor weight
Assay type: in vivo
Details: for effect on tumor weight versus untreated vehicle: female athymic mice with U87 implants, 10 mg/kg body weight fed, compared with Vehicle 73.8 mg; for Tumor weight: female athymic mice, subcutaneous U87 implants (two per mouse), fed 10 mg/kg body weight, tumors excised and weighed at termination (about one week of treatment), average of six tumors, Vehicle 73.8 mg
Protocol: The effect of the hydrogenated and non-hydrogenated cannabis oil on tumor growth and angiogenesis were evaluated by implanting U87 (Human glioblastoma) 3×10^6 cells (50% matrigel) in […] female athymic mice. The site of implantation was subcutaneous with two implants per mouse. The date of implantation was Feb. 1, 2016 and the date of administering treatment was Feburary 3, 2016. There were three mice in each of the following groups, and the treatment consisted of feeding each of the three mice 10 mg/kg body weight of the treatment corresponding to each one of the following groups: • 1. Untreated Vehicle • 2. THCA • 3. CBDA • 4. HCBDA • 5. HTHCA
The termination date was Feb. 11, 2016. On this date, the tumors were excised and weighed. The results are shown in Table 1 and illustrated in the below plot.
It was assumed that the excised tumor weight for the “Untreated Vehicle” was essentially equivalent to its starting tumor weight.

Row | Compound | effect on tumor weight versus untreated vehicle | Tumor weight [mg]
1 | CCCCCc1cc2c(c(O)c1C(=O)O)[C@@H]1C=C(C)CC[C@H]1C(C)(C)O2 [THCA, Δ-9-tetrahydrocannabinoic acid] | effective to reduce tumor weight | 46.0
2 | C=C(C)[C@@H]1CCC(C)=C[C@H]1c1c(O)cc(CCCCC)c(C(=O)O)c1O [CBDA, Δ-9-cannabidiolic acid] | effective to reduce tumor weight | 39.1
3 | CCCCCc1cc(O)c([C@@H]2CC(C)CC[C@H]2C(C)C)c(O)c1C(=O)O (some centres unmarked) [HCBDA, hydrogenated 9-cannabidioc acid] | effective to reduce tumor weight | 32.6
4 | CCCCCc1cc2c(c(O)c1C(=O)O)[C@@H]1CC(C)CC[C@H]1C(C)(C)O2 (some centres unmarked) [HTHCA, hydrogenated 9-tetrahydrocannabinoic acid] | effective to reduce tumor weight | 44.5
